{
  "source": "patent US11565005B2",
  "about": "“Dota-hapten compositions for anti-dota/anti-tumor antigen bispecific antibody pretargeted radioimmunotherapy” (MEMORIAL SLOAN KETTERING CANCER CENTER, priority 2017, dated 2023)",
  "key": {"[1]": {"test_system": "HER2-expressing BT-474 xenografts", "test": "Ex vivo biodistribution of BsAb/hapten complex or hapten alone in BT-474 tumor-bearing mice", "parameters": "species or system athymic nude mice", "settings": "4 h after injection", "description": "The ^225Ac-Proteus-DOTA haptens were injected intravenously via the lateral tail vein and euthanized 4 hours later for organ collection and radioactivity assessment. Asterisk (*) indicates levels below the limit of detection. Two groups of nude mice with subcutaneous BT474 tumors (3 mice each) were treated with either: [^225Ac Proteus-DOTA] only (0.51 nmol/mouse; ˜30 nCi of ^225Ac/mouse) or PD10-purified [anti-HER2-C825/[^225Ac Proteus-DOTA] complex (estimate 1.79 nmol of ^225Ac Proteus-DOTA/mouse, 1.0 nmol of antibody/mouse; 100 nCi ^225Ac/mouse), and sacrificed 4 h post-injection for ex vivo biodistribution assay. The tissue samples were read in the gamma counter the following day at equilibrium.\nBiodistribution Experiments.\nTo determine whether isolated BsAb/[^225Ac]Proteus-DOTA complexes could target tumors in vivo, a biodistribution assay was conducted after SEC purification with two groups of athymic nude mice (n=3) bearing subcutaneous HER2-expressing BT-474 xenografts. […]"}, "[2]": {"test": "Biodistribution of [^225Ac]Proteus-DOTA alone in tumor-free nude mice", "format": "in vivo", "settings": "hapten alone, 1 h p.i.", "text": "Carcass radioactivity was not collected during this study."}, "[3]": {"settings": "n = 3, listed as [^225Ac] Proteus-DOTA"}},
  "data": [
    {"smiles": "O=C([O-])CN1CCN(CC(=O)[O-])CCN(CC(=O)NCCOCCOCCOCCOCCNC(=S)Nc2ccc(CC3CN(CC(=O)[O-])CCN(CC(=O)[O-])CCN(CC(=O)[O-])CCN3CC(=O)[O-])cc2)CCN(CC(=O)[O-])CC1.[225Ac+3].[Lu+3]", "note": "(centres unmarked) [[^225Ac]Proteus-DOTA]", "values": [
      {"measurement": "uptake in all assayed tissues", "setting": "[1]", "value": "≤ 2", "unit": "% ID/g"},
      {"measurement": "tumor accumulation", "setting": "[1]; BT-474 xenograft, i.v., n=3", "value": "0.50±0.34", "unit": "% ID/g"},
      {"measurement": "Blood uptake", "setting": "[2]; n = 3", "value": "0.31±0.54", "unit": "% ID/g"},
      {"measurement": "Bone uptake", "setting": "[2]; n = 3", "value": "0.45 ± 0.79", "unit": "% ID/g"},
      {"measurement": "Kidneys uptake", "setting": "[2]; n = 3", "value": "0.63±0.41", "unit": "% ID/g"},
      {"measurement": "Large Intestine uptake", "setting": "[2]; n = 3", "value": "0.02 ± 0.02", "unit": "% ID/g"},
      {"measurement": "Liver uptake", "setting": "[2]; n = 3", "value": "0.04±0.06", "unit": "% ID/g"},
      {"measurement": "Muscle uptake", "setting": "[2]; n = 3", "value": "0.98 ± 0.91", "unit": "% ID/g"},
      {"measurement": "Small Intestine uptake", "setting": "[2]; n = 3", "value": "0.16 ± 0.26", "unit": "% ID/g"},
      {"measurement": "Spleen uptake", "setting": "[2]; n = 3", "value": "0.04 ± 0.06", "unit": "% ID/g"},
      {"measurement": "Stomach uptake", "setting": "[2]; n = 3", "value": "0.24 ± 0.38", "unit": "% ID/g"},
      {"measurement": "Blood uptake", "setting": "[2]; [3]", "value": "0.31 ± 0.54", "unit": "% ID/g"},
      {"measurement": "Kidneys uptake", "setting": "[2]; [3]", "value": "0.63 ± 0.41", "unit": "% ID/g"},
      {"measurement": "Liver uptake", "setting": "[2]; [3]", "value": "0.01 ± 0.02", "unit": "% ID/g"}
    ]}
  ]
}
